Where two headings read alike, the source gives them in different places.
How the values were obtained:
Experiment in all cases: KinomeScan kinase panel, single concentration 10 µM
Type in all cases: binding
KinomeScan kinase panel [1] = target: T1, KinomeScan kinase panel (Homo sapiens, UniProt P00519); conditions: read-out: score (%)
T1 construct: purchased DiscoveRx (KinomeScan)

KinomeScan kinase panel [2] = target: T2, KinomeScan kinase panel (Homo sapiens, UniProt P00533, G719S); conditions: EGFR(G719S), 10 µM
T2 construct: purchased DiscoveRx (KinomeScan)
T2 sequence (P00533 25-1210 G719S): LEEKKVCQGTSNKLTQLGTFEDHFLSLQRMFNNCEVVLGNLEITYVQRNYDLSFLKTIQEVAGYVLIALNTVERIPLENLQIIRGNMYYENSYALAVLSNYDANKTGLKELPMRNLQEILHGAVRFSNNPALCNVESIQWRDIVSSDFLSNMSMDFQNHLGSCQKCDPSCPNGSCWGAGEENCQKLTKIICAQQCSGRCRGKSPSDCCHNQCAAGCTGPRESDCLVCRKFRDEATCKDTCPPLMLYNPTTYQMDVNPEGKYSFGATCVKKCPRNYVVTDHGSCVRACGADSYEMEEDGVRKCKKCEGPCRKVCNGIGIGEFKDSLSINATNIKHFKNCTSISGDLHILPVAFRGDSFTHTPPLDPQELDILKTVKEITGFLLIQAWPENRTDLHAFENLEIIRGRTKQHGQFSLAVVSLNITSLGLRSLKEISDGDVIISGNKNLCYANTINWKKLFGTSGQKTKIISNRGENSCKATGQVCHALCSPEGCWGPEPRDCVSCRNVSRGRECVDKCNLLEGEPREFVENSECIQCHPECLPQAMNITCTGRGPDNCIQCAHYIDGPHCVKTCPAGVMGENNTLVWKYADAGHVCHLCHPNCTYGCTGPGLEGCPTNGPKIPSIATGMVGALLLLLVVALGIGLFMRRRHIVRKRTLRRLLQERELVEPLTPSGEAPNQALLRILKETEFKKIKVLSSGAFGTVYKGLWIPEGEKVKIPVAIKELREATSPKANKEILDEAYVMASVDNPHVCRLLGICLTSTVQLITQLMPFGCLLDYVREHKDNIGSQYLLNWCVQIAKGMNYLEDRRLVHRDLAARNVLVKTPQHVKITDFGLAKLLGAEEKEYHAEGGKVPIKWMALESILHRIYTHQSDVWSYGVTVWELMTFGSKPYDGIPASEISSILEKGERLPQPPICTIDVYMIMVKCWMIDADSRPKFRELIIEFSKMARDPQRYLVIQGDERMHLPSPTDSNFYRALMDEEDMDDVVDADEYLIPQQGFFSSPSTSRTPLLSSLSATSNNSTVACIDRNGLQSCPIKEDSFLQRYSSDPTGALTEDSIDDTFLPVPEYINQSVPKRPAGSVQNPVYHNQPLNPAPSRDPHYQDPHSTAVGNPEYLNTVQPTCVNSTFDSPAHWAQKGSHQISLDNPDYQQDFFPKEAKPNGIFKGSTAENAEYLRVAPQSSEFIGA

KinomeScan kinase panel [3] = target: T3, KinomeScan kinase panel (Homo sapiens, UniProt P08581); conditions: MET, 10 µM
T3 construct: purchased DiscoveRx (KinomeScan)
T3 sequence (P08581 25-1390): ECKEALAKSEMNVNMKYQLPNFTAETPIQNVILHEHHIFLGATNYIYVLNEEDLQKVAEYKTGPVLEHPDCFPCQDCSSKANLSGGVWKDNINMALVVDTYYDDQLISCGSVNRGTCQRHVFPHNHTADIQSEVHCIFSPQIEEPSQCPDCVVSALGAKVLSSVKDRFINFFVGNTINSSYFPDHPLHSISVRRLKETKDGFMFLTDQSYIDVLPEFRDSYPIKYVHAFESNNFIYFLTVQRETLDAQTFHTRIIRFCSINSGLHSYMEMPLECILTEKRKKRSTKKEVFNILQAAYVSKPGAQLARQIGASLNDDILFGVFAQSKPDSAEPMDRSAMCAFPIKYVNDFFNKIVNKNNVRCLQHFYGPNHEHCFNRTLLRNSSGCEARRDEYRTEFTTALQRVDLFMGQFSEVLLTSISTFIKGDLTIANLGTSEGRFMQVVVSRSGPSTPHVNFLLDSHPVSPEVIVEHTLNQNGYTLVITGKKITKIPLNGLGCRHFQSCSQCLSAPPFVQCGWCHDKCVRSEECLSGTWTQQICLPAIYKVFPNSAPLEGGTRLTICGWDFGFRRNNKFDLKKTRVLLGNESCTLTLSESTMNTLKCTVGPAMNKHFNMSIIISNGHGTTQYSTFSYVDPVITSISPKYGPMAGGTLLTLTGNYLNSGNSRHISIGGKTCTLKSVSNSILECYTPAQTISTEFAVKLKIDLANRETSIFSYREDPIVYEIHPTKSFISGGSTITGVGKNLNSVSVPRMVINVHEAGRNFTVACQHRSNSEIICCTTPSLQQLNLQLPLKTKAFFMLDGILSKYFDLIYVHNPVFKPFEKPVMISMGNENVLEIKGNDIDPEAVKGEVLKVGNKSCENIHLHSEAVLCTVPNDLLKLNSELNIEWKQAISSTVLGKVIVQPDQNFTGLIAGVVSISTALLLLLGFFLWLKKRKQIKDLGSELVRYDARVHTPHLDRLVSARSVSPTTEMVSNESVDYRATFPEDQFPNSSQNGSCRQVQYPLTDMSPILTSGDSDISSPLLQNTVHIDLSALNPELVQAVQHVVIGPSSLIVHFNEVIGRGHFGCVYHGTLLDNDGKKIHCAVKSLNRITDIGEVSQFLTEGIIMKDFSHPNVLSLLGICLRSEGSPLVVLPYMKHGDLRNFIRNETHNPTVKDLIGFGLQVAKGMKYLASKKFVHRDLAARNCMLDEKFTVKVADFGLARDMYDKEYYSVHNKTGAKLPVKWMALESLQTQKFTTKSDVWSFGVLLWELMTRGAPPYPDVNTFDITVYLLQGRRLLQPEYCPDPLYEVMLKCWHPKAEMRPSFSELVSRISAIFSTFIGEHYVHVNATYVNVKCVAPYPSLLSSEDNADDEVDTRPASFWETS

KinomeScan kinase panel [4] = target: T4, KinomeScan kinase panel (Homo sapiens, UniProt P51955); conditions: NEK2, 10 µM; read-out: score (%)
T4 construct: purchased DiscoveRx (KinomeScan)
T4 sequence (P51955 1-445): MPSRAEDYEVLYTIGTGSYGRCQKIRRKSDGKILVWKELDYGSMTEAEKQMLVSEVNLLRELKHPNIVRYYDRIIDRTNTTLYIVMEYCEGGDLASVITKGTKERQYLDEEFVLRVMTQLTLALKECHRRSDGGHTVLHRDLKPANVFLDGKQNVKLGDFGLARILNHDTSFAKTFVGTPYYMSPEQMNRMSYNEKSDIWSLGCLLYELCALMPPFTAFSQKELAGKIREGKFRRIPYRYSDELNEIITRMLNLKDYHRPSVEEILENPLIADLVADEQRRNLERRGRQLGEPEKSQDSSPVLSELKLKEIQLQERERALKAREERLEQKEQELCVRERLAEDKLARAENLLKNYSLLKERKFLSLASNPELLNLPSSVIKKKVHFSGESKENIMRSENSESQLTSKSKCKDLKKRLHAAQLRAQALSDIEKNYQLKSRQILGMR

KinomeScan kinase panel [5] = target: T5, KinomeScan kinase panel (Homo sapiens, UniProt Q32MK0); conditions: MLCK, 10 µM; read-out: score (%)
T5 construct: purchased DiscoveRx (KinomeScan)
T5 sequence (Q32MK0 1-819): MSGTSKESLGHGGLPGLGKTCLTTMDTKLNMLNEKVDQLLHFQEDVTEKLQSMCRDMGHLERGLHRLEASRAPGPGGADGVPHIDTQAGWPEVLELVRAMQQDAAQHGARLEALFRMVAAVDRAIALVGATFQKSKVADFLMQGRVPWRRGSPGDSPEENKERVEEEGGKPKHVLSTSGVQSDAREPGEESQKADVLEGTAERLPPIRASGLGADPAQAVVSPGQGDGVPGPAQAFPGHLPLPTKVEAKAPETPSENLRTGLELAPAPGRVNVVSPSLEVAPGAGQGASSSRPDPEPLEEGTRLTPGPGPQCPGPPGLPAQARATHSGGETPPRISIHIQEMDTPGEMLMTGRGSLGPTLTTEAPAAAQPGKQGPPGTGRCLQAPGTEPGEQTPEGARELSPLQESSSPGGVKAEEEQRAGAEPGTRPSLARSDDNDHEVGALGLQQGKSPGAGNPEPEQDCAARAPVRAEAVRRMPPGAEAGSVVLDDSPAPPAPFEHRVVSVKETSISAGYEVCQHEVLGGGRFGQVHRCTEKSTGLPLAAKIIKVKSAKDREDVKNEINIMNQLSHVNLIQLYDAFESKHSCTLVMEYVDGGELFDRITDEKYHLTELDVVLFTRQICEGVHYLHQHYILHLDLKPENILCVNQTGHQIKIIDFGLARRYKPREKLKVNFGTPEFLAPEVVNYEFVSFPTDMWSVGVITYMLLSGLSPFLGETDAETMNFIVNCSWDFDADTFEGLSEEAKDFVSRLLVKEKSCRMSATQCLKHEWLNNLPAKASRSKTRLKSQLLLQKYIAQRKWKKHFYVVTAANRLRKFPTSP

KinomeScan kinase panel [6] = target: T6, KinomeScan kinase panel (Homo sapiens, UniProt Q99683); conditions: read-out: score (%)
T6 construct: purchased DiscoveRx (KinomeScan)
T6 sequence (Q99683 1-1374): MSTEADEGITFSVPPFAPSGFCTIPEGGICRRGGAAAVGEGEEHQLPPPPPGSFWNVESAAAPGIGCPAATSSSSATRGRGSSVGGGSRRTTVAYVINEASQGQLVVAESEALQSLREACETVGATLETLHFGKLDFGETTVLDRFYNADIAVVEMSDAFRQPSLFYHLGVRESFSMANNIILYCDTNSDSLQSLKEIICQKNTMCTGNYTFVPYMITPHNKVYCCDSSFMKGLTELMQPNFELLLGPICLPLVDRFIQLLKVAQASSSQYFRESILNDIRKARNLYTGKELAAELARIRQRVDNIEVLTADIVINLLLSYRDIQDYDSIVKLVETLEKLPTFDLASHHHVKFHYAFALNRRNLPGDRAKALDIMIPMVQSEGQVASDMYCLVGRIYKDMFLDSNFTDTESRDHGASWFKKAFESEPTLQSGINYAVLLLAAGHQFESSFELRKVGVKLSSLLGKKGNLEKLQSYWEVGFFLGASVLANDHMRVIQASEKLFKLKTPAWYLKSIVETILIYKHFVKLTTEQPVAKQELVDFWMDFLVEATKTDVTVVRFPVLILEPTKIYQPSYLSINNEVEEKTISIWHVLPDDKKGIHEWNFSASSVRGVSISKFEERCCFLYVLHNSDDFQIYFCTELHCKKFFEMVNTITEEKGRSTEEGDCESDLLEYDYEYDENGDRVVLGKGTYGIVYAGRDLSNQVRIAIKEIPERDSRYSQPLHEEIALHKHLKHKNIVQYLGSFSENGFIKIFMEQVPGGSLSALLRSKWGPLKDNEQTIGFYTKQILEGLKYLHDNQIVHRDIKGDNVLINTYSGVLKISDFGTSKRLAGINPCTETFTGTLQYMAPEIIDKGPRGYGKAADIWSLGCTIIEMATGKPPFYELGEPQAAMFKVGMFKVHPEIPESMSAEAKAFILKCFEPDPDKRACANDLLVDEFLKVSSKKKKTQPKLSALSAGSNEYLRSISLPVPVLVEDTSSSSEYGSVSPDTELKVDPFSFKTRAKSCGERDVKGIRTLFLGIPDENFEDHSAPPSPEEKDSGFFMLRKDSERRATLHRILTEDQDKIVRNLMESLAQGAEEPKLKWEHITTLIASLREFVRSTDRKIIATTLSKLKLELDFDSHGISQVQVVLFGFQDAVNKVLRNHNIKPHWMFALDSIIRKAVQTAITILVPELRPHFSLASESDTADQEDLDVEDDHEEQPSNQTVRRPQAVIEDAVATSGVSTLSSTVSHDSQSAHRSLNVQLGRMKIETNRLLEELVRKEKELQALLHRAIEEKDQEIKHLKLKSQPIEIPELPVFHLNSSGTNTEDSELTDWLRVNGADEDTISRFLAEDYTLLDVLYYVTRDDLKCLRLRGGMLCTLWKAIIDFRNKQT

KinomeScan kinase panel [7] = target: T7, KinomeScan kinase panel (Homo sapiens, UniProt Q9BWU1); conditions: CDK11, 10 µM
T7 construct: purchased DiscoveRx (KinomeScan)
T7 sequence (Q9BWU1 whole entry): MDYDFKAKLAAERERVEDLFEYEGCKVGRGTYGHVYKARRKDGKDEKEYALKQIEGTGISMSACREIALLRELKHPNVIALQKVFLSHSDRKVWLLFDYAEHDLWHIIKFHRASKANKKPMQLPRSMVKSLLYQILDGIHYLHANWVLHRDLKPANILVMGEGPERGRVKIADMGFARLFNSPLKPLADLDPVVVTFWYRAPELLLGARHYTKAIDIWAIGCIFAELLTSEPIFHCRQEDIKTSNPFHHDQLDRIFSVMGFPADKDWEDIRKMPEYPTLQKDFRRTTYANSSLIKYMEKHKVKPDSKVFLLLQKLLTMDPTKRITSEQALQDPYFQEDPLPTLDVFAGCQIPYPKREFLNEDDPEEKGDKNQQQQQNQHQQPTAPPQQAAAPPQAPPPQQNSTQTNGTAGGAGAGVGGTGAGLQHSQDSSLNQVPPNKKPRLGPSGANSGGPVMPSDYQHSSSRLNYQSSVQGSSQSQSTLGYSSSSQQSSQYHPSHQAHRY

T1 sequence (P00519 whole entry): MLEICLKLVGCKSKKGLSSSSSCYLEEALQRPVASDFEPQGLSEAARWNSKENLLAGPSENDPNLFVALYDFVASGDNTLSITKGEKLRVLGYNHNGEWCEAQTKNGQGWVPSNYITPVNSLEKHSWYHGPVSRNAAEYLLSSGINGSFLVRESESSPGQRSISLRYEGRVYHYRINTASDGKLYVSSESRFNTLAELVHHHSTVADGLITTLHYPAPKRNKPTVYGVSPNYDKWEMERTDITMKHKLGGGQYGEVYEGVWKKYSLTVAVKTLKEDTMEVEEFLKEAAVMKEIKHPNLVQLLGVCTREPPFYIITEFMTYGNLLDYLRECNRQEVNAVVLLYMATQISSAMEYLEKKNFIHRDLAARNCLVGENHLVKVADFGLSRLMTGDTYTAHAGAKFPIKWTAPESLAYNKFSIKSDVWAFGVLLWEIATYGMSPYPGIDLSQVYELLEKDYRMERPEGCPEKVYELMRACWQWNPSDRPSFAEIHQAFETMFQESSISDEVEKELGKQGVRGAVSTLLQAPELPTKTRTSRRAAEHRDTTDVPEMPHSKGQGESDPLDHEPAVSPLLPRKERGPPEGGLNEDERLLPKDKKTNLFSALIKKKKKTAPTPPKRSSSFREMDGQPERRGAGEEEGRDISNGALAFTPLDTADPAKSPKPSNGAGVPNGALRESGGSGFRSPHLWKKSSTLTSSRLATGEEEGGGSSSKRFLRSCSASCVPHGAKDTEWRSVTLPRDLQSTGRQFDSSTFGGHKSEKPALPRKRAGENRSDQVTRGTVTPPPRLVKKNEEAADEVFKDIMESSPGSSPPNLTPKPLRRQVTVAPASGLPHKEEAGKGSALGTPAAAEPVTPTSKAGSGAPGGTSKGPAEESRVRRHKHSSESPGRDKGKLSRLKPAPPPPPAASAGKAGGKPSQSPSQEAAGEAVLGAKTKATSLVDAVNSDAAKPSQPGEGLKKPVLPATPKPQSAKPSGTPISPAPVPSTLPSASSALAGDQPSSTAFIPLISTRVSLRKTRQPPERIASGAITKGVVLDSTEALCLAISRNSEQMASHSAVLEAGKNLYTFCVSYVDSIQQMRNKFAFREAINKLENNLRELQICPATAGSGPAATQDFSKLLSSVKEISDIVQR

remaining binding at 10 µM (KinomeScan kinase panel [6]; MAP3K5, 10 µM) | Compound | remaining binding at 10 µM (KinomeScan kinase panel [1]; ABL1, 10 µM) | score (%) (KinomeScan kinase panel [2]) | score (%) (KinomeScan kinase panel [3]) | remaining binding at 10 µM (KinomeScan kinase panel [4]) | remaining binding at 10 µM (KinomeScan kinase panel [5]) | remaining binding at 10 µM (KinomeScan kinase panel [6]; ASK1, 10 µM) | score (%) (KinomeScan kinase panel [7]) | remaining binding at 10 µM (KinomeScan kinase panel [1]; ABL1-nonphosphorylated, 10 µM) | remaining binding at 10 µM (KinomeScan kinase panel [1]; ABL1-phosphorylated, 10 µM)
 | CCN1CCN(Cc2ccc(NC(=O)c3ccc(C)c(NC(=O)c4cncc(-c5cccs5)c4)c3)cc2C(F)(F)F)CC1 [ALW-II-41-27] | 0.05% | 0.5% | nb (Hits values higher than 30% were considered negative (no binding: nb)) | > 30% | > 30% | > 30% | 3.8% |  | 
> 30% | CCN1CCN(Cc2ccc(NC(=O)c3ccc(C)c(/C=C/c4cnc5[nH]ccc5c4Cl)c3)cc2C(F)(F)F)CC1 [HG-6-63-01, (E)-3-(2-(4-chloro-1H-pyrrolo[2,3-b]pyridin-5-yl)vinyl)-N-(4-((4-ethylpiperazin-1-yl)methyl)-3-(trifluoromethyl)phenyl)-4-methylbenzamide] | 0.3% | 0.1% | nb (Hits values higher than 30% were considered negative (no binding: nb)) | > 30% | 5.9% |  | 3% |  | 
 | CCN1CCN(Cc2ccc(NC(=O)c3ccc(C)c(C#Cc4cccnc4)c3)cc2C(F)(F)F)CC1 [XMD15-44] |  | 2.4% | nb (Hits values higher than 30% were considered negative (no binding: nb)) | > 30% | > 30% | > 30% | 5% | 0% | 0%

Reference: PMC4457528, “Identification of Novel Small Molecule Inhibitors of Oncogenic RET Kinase” (PLoS ONE, 2015)
